Measurements taken from PubChem BioAssay AID1159611.
pIC50: −log10 of the molar value.

Target: Retinoic acid receptor RXR-alpha (Homo sapiens) (UniProt P19793)
Assay: ligand displacement at retinoid X receptor alpha – biochemical, [3H]9-cis-retinoic acid, RXRalpha, dose response (AID 1159611)
Conditions: RXRalpha [3H]9-cis-retinoic acid displacement binding

Chain of Retinoic acid receptor RXR-alpha (Homo sapiens) (P19793 whole entry, looked up): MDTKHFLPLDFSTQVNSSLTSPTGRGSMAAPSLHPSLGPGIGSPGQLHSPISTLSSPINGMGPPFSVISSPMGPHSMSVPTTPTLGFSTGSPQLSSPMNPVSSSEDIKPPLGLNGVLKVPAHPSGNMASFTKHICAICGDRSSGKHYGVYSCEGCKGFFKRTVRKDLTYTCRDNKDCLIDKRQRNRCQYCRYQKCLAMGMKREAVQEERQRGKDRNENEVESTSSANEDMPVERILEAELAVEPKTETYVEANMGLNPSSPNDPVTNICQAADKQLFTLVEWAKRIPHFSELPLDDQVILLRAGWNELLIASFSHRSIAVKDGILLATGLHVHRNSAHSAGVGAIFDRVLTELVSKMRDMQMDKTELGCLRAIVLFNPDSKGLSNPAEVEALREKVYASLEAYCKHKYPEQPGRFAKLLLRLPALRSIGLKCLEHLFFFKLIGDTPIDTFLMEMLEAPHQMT

- pIC50: 5.24
SMILES: CC1=C[C@H](O)CC(C)(C)[C@H]1/C=C/C(C)=C/C=C/C(C)=C/C=C/C=C(C)/C=C/C=C(C)/C=C/C1=C(C)C[C@@H](O)CC1(C)C
